Measurements as given in ChEMBL document CHEMBL5291721, “A preclinical secondary pharmacology resource illuminates target-adverse drug reaction associations of marketed drugs” (Nat Commun, 2023).
Where “and” joins values, the source holds several entries; their conditions need not be identical. Equal values may be shown once.

Tests used:
Adenosine receptor A1 = target: T1, Adenosine receptor A1 (Homo sapiens, UniProt P30542)
T1 sequence (P30542 whole entry): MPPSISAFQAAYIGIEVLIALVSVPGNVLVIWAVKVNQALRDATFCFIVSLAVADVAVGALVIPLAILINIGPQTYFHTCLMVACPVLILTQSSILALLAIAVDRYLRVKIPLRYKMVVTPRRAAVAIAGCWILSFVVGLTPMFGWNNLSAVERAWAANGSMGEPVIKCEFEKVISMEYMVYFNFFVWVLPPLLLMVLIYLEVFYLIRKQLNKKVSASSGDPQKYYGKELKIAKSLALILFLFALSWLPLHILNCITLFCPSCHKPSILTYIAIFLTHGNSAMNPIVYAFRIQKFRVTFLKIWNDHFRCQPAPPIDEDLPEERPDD

Vasopressin V2 receptor = Vasopressin V2 receptor (Homo sapiens, UniProt P30518)
Vasopressin V2 receptor, sequence (P30518 whole entry): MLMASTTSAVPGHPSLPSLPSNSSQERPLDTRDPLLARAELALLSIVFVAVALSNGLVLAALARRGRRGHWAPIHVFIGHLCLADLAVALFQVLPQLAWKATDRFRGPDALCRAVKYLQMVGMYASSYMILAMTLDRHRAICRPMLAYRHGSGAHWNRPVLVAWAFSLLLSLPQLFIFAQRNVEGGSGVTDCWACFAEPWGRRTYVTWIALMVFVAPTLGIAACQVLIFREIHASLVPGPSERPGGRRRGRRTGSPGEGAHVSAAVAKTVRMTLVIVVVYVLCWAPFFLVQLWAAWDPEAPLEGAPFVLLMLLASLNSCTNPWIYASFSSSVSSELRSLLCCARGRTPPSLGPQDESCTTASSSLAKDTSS

[1] = target: Glutamate receptor ionotropic, NMDA 1 (Rattus norvegicus, UniProt P35439)
[2] = target: T2, 5-hydroxytryptamine receptor 2C (Homo sapiens, UniProt P28335)
T2 sequence (P28335 whole entry): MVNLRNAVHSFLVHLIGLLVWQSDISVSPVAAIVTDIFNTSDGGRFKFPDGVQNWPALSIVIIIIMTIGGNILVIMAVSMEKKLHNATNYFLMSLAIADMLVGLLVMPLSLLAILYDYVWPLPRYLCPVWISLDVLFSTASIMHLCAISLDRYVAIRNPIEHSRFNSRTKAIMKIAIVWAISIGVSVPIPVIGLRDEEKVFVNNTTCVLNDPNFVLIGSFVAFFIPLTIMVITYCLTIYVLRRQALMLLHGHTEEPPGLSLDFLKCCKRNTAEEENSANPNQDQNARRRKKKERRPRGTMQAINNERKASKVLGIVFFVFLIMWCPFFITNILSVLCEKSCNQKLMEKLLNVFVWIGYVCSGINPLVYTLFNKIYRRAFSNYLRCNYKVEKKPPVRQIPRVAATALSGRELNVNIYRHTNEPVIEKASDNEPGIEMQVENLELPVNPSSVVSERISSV

Melanocortin receptor 3 = Melanocortin receptor 3 (Homo sapiens, UniProt P41968)
Melanocortin receptor 3, sequence (P41968 whole entry): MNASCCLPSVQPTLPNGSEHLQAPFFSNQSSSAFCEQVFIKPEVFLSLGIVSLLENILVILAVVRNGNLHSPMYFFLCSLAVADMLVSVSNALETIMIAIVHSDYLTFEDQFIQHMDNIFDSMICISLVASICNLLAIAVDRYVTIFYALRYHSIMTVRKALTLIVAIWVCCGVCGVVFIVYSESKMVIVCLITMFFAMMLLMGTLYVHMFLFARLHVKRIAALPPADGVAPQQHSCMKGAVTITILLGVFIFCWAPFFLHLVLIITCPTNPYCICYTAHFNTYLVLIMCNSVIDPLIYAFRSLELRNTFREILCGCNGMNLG

[3] = target: Delta-type opioid receptor (Homo sapiens, UniProt P41143)
Delta-type opioid receptor, sequence (P41143 whole entry): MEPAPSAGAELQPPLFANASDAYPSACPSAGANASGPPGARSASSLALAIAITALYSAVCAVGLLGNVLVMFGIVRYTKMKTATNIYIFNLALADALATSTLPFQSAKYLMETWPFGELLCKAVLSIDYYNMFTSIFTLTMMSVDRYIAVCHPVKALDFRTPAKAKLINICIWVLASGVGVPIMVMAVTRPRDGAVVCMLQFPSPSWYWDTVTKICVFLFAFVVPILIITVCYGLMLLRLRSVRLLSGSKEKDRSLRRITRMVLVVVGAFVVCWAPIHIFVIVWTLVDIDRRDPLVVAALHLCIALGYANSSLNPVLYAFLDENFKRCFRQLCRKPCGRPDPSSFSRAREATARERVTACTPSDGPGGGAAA

[4] = target: T3, Prostaglandin G/H synthase 1 (Rattus norvegicus, UniProt Q63921); format: functional
T3 sequence (Q63921 whole entry): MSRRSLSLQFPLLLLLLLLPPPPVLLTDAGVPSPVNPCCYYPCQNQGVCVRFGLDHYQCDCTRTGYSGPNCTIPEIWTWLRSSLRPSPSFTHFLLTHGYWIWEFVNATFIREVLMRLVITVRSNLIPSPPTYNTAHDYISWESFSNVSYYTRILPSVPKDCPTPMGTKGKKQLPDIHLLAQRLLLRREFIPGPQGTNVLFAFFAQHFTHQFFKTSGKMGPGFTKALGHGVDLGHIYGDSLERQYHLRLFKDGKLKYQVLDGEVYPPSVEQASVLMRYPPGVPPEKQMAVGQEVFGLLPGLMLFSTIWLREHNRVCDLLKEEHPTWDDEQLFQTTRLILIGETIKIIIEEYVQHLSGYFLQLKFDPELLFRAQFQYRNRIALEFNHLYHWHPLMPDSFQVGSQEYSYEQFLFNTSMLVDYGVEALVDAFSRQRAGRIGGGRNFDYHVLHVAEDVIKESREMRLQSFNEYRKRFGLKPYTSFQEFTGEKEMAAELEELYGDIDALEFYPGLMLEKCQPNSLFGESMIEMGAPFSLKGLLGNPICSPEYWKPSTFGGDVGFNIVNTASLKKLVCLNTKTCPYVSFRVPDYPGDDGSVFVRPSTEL

[5] = target: T4, Equilibrative nucleoside transporter 1 (Homo sapiens, UniProt Q99808)
T4 sequence (Q99808 whole entry): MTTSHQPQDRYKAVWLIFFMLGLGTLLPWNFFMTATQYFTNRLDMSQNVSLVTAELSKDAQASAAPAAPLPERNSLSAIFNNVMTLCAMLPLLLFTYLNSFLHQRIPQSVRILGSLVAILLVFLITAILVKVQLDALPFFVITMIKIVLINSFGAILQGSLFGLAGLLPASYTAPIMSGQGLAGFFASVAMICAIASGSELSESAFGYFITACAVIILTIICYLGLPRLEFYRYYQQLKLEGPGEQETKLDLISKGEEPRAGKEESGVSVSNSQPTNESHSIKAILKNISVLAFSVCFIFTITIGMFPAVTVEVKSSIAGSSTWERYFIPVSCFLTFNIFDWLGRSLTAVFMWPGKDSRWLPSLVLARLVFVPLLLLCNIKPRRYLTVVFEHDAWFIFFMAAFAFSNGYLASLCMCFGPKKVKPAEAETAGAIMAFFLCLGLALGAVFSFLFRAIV

[6] = target: Sodium-dependent dopamine transporter (Homo sapiens, UniProt Q01959)
Sodium-dependent dopamine transporter, sequence (Q01959 whole entry): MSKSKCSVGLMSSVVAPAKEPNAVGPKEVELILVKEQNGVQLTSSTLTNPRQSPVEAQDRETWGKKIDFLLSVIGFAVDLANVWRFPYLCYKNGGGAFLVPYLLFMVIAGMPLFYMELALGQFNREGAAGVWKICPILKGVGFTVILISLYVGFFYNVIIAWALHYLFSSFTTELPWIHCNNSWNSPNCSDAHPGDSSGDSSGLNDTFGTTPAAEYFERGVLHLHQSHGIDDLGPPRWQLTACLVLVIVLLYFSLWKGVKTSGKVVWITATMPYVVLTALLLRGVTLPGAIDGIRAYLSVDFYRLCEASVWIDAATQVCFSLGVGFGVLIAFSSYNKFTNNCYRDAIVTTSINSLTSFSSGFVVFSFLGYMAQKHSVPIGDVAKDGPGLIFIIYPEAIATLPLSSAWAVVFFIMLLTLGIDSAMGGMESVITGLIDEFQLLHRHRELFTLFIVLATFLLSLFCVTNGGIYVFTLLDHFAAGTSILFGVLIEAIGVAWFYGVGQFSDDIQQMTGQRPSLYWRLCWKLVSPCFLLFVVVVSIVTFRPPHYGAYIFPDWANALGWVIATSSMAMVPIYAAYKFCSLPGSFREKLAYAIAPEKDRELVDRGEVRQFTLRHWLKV

[7] = target: T5, Amine oxidase [flavin-containing] A (Homo sapiens, UniProt P21397); format: functional
T5 sequence (P21397 whole entry): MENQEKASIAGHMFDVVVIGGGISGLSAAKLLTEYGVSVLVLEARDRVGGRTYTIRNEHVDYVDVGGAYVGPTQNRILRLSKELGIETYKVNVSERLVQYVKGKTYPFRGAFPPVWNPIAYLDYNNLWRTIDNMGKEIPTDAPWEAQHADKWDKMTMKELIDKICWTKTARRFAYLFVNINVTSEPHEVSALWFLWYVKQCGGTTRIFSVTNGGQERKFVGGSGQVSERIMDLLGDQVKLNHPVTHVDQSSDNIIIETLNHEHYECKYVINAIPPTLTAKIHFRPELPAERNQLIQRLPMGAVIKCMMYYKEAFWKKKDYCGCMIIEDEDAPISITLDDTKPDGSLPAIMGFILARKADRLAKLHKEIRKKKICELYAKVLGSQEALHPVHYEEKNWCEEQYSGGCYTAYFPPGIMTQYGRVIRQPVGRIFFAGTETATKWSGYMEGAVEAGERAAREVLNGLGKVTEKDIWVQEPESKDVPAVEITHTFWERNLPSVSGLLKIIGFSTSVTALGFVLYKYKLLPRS

[8] = target: cGMP-inhibited 3',5'-cyclic phosphodiesterase 3A (Homo sapiens, UniProt Q14432); format: functional
cGMP-inhibited 3',5'-cyclic phosphodiesterase 3A, sequence (Q14432 whole entry): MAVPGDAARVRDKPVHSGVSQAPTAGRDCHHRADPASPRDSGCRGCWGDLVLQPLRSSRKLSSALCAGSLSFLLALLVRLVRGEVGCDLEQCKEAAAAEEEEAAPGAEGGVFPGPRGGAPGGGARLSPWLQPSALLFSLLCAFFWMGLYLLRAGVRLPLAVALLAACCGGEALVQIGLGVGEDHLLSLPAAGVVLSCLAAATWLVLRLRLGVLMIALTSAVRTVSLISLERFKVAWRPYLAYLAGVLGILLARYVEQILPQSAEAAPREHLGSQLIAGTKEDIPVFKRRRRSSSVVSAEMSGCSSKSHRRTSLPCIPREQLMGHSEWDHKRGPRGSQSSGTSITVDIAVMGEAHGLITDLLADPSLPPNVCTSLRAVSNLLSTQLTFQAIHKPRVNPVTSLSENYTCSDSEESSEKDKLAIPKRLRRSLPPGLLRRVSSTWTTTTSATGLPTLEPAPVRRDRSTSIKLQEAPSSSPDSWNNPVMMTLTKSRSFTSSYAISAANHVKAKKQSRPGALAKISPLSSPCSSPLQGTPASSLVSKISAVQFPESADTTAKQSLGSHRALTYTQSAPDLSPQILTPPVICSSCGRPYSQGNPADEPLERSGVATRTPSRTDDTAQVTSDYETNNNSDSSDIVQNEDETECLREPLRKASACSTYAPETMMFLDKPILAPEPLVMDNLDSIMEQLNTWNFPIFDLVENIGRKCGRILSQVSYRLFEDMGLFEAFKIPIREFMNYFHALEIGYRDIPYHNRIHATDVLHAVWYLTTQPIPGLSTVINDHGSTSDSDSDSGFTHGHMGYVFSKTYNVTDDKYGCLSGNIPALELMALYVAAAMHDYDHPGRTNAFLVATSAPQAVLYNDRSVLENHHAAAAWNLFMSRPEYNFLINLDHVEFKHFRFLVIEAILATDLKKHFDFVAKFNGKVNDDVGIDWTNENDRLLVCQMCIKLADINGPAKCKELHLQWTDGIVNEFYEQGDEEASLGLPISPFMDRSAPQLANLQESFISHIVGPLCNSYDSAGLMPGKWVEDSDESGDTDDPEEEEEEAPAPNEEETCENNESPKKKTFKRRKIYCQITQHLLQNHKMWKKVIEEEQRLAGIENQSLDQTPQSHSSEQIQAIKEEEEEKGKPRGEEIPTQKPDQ
Further: assay procedure not described here.

Row | Structure (SMILES) | AC50 (Adenosine receptor A1) [µM] | AC50 (Vasopressin V2 receptor) [µM] | AC50 [1] [µM] | AC50 [2] [µM] | AC50 (Melanocortin receptor 3) [µM] | AC50 [3] [µM] | AC50 [4] | AC50 [5] [µM] | AC50 [6] | AC50 [7] [µM] | AC50 [8]
1 | CCC(=O)O[C@]1(C(=O)SCF)[C@H](C)C[C@H]2[C@@H]3C[C@H](F)C4=CC(=O)C=C[C@]4(C)[C@@]3(F)[C@@H](O)C[C@@]21C [FLUTICASONE PROPIONATE] | > 30 | > 30 | > 30 | > 30 | > 30 | > 30 | > 30 µM | > 30 | > 30 µM | > 30 | > 30 µM
2 | CC(C)COCC(CN(Cc1ccccc1)c1ccccc1)N1CCCC1 (stereo unspecified) [BEPRIDIL] | > 30 | > 30 | > 30 | > 30 | 12.5 | > 30 | > 30 µM | > 30 | 16.2 µM | > 30 | > 30 µM
3 | CC(C)(C)C(=O)OCC(=O)[C@H]1CC[C@H]2[C@@H]3CCC4=CC(=O)CC[C@]4(C)[C@H]3CC[C@]12C [DESOXYCORTICOSTERONE PIVALATE] | > 10 | > 10 | > 10 | > 30 | > 10 | > 30 | > 10 µM | > 10 | > 10 µM | > 10 | > 30 µM
4 | C[C@]12CCC(=O)C(O)=C1CC[C@@H]1[C@@H]2CC[C@]2(C)C(=O)CC[C@@H]12 [FORMESTANE] | > 30 | > 30 | > 30 | > 30 | > 30 | > 30 | > 30 µM | > 30 | > 30 µM | > 30 | > 30 µM
5 | CCC1(c2ccccc2)CCC(=O)NC1=O (stereo unspecified) [GLUTETHIMIDE] | > 10 | > 10 | > 10 | > 30 | > 10 | > 30 | > 10 µM | > 10 | > 10 µM | > 10 | > 30 µM
6 | CCOC(=O)C1=C(C)NC(C)=C(C(=O)OC)C1c1cccc([N+](=O)[O-])c1 (stereo unspecified) [NITRENDIPINE] | > 30 | > 30 | > 10 | > 30 | > 30 | > 30 | > 30 µM | 15.9 | 32.2 µM | > 10 | > 30 µM
7 | CNC1=Nc2ccc(Cl)cc2C(c2ccccc2)=[N+]([O-])C1 [CHLORDIAZEPOXIDE] | > 30 | > 30 | > 10 | > 30 | > 30 | > 30 | > 30 µM | > 30 | > 30 µM | > 10 | > 30 µM
8 | C/N=C(\NC)NCc1ccccc1 [BETHANIDINE] | > 30 | > 30 | > 30 | > 10 | > 30 | > 30 | > 30 µM | > 30 | > 30 µM | > 30 | > 30 µM
9 | Cc1noc(NS(=O)(=O)c2ccc(N)cc2)c1C [SULFISOXAZOLE] | > 10 | > 10 | > 10 | > 30 | > 10 | > 30 | > 10 µM | > 10 | > 10 µM | > 10 | > 30 µM
10 | CCCCC1C(=O)N(c2ccccc2)N(c2ccccc2)C1=O [PHENYLBUTAZONE] | > 30 | > 30 | > 10 | > 30 | > 30 | > 30 | > 10 µM | > 30 | > 30 µM | > 10 | > 30 µM
11 | C[C@H](Cc1ccc(O)c(O)c1)[C@@H](C)Cc1ccc(O)c(O)c1 [MASOPROCOL] | > 30 | > 10 | > 10 | > 30 | > 30 | > 30 | 18 µM and 14 µM and 12 µM | > 30 | 3.4 µM and 5.4 µM and 5.2 µM | > 30 | 12 µM and 23 µM and 19 µM
